# According to patent US9708336B2, “Metallo-beta-lactamase inhibitors” (priority 2014, dated 2017):
# Read-outs that look alike come from different tables or passages of the source.
# Tests used:
# NDM-1 = NDM-1 (Klebsiella pneumoniae, UniProt C7C422); assay: biochemical; format: biochemical; conditions: read-out: NDM-1 IC50
# IMP-1 = IMP-1 (Serratia marcescens, UniProt P52699); assay: biochemical; format: biochemical; conditions: read-out: IMP-1 IC50
# [1] = system: Serratia marcescens expressing IMP-1 (CL5741); assay: Antibiotic potentiation activity: synergistic concentration (MITC95) with imipenem, OD600 growth; format: cell-based; conditions: for Serratia marcescens expressing IMP-1 (CL5741) MITC95: concentration giving 95% inhibition of bacterial growth
# Outline: (§1)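 Inoculum: saline suspension of overnight colonies, 1:100 into 1.1× CAMHB. Imipenem 4 μg/ml final (alt. 1 μg/ml) + compound; 35 °C, 22–24 h; absorbance read-out.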
# [2] = system: Klebsiella pneumoniae expressing VIM-1 (IHMA599644); assay: as above; format: cell-based; conditions: for Klebsiella pneumoniae expressing VIM-1 (IHMA 599644) MITC95: concentration giving 95% inhibition of bacterial growth
# Outline: as §1
# [3] = system: Escherichia coli expressing NDM-1 (CLB30016); assay: as above; format: cell-based; conditions: for Escherichia coli expressing NDM-1 (CLB 30016) MITC95: concentration giving 95% inhibition of bacterial growth
# Outline: as §1
# VIM-1 = VIM-1 (Pseudomonas aeruginosa (strain ATCC 15692 / DSM 22644 / CIP 104116 / JCM 14847 / LMG 12228 / 1C / PRS 101 / PAO1), UniProt A0A0F7KYQ8); assay: Enzyme activity: determination of IC50, fluorescence assay with CCF2-FA substrate (VIM-1); format: biochemical
# [4] = fluorescence assay with CCF2-FA substrate
# [5] = fluorescence assay with CCF2-FA substrate, read-out: VIM-1 IC50
# [6] = NDM-1 enzyme, CCF2-FA fluorescence assay
# [7] = IMP-1 enzyme, CCF2-FA fluorescence assay
# [8] = Serratia marcescens expressing IMP-1 (CL5741), 95% growth inhibition
# [9] = Klebsiella pneumoniae expressing VIM-1 (IHMA599644), 95% growth inhibition
# [10] = Escherichia coli expressing NDM-1 (CLB30016), 95% growth inhibition
# [11] = VIM-1 enzyme, CCF2-FA fluorescence assay, read-out: VIM-1 IC50
# [12] = NDM-1 enzyme, CCF2-FA substrate
# [13] = IMP-1 enzyme, CCF2-FA substrate
# [14] = Serratia marcescens CL5741 (IMP-1), 95% growth inhibition
# [15] = Klebsiella pneumoniae IHMA599644 (VIM-1), 95% growth inhibition
# [16] = (CLB30016, NDM-1), 95% growth inhibition
# [17] = VIM-1 IC50, VIM-1 enzyme, CCF2-FA substrate
# [18] = VIM-1 enzyme, CCF2-FA substrate, read-out: VIM-1 IC50
# [19] = CL5741 (IMP-1), 95% inhibition of bacterial growth
# [20] = IHMA599644 (VIM-1), 95% inhibition of bacterial growth
# [21] = CLB30016 (NDM-1), 95% inhibition of bacterial growth
# Sequence of NDM-1 (C7C422 whole entry, looked up, species assumed): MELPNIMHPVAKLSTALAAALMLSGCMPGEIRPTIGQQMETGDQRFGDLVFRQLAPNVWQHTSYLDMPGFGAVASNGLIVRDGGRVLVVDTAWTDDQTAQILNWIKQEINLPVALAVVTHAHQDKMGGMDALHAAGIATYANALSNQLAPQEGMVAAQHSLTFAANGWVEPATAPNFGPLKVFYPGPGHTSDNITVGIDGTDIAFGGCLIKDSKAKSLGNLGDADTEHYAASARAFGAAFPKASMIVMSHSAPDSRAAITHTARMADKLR
# Sequence of IMP-1 (P52699 whole entry, looked up): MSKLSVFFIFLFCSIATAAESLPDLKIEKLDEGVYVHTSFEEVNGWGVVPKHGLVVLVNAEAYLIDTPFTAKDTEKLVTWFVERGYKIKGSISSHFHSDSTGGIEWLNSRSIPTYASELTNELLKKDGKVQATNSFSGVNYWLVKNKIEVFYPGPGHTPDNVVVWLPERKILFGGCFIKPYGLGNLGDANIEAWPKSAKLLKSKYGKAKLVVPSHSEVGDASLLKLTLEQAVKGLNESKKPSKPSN
structure (smiles),measurement,setting,value
"NS(=O)(=O)c1nccc(N2CCC(N3CC[C@H](O)C3)CC2)c1-c1nnn[nH]1 [Example 226, 4-{4-[(3S)-3-hydroxypyrrolidin-1-yl]piperidin-1-yl}-3-(1H-tetrazol-5-yl)pyridine-2-sulfonamide]",IC50,NDM-1; [4],481 nM
same,IC50,IMP-1; [4],3870 nM
same,Serratia marcescens expressing IMP-1 (CL5741) MITC95,[1],50 µM
same,Klebsiella pneumoniae expressing VIM-1 (IHMA 599644) MITC95,[2],12.5 µM
same,Escherichia coli expressing NDM-1 (CLB 30016) MITC95,[3],6.25 µM
same,IC50,VIM-1; [5],710 nM
"NS(=O)(=O)c1c(Br)ccc(-c2ccnc3ccccc23)c1-c1nn[nH]n1 [Example 266, 6-bromo-3-(quinolin-4-yl)-2-(2H-tetrazol-5-yl)benzenesulfonamide]",IC50,NDM-1; [6],2.08 nM
same,IC50,IMP-1; [7],12.6 nM
same,Serratia marcescens MITC95,[1]; [8],0.7813 µM
same,Klebsiella pneumoniae MITC95,[2]; [9],9.375 µM
same,Escherichia coli MITC95,[3]; [10],3.125 µM
same,IC50,VIM-1; [11],0.689 nM
"NS(=O)(=O)c1cccc(-c2cccc3sc(NC4CCN(CCF)CC4)nc23)c1-c1nnn[nH]1 [Example 646, 3-[2-[[1-(2-fluoroethyl)-4-piperidyl]amino]-1,3-benzothiazol-4-yl]-2-(1H-tetrazol-5-yl)benzenesulfonamide]",IC50,NDM-1; [12],0.851 nM
same,IC50,IMP-1; [13],31.8 nM
same,Serratia marcescens MITC95,[1]; [14],50 µM
same,Klebsiella pneumoniae MITC95,[2]; [15],100 µM
same,Escherichia coli MITC95,[3]; [16],3.125 µM
same,IC50,VIM-1; [17],5.1 nM
"Nc1nc2c(-c3ccc(CCC4CCC(N)CC4)c(S(N)(=O)=O)c3-c3nn[nH]n3)cccc2s1 (stereo not drawn) [Example 541, 3-(2-Aminobenzo[d]thiazol-4-yl)-6-(2-(4-aminocyclohexyl)ethyl)-2-(2H-tetrazol-5-yl)benzenesulfonamide]",IC50,NDM-1; [12],0.133 nM
same,IC50,IMP-1; [13],7.21 nM
same,Serratia marcescens MITC95,[1]; [14],6.25 µM
same,Klebsiella pneumoniae MITC95,[2]; [15],25 µM
same,Escherichia coli MITC95,[3]; [16],3.125 µM
same,IC50,VIM-1; [18],5.11 nM
"NC[C@H]1CC[C@H](Cc2ccc(-c3ccc(C4CNC4)cc3)c(-c3nnn[nH]3)c2S(N)(=O)=O)CC1 [Example 601, 4-(((1r,4r)-4-(aminomethyl)cyclohexyl)methyl)-4′-(azetidin-3-yl)-2-(1H-tetrazol-5-yl)-[1,1′-biphenyl]-3-sulfonamide]",IC50,NDM-1; [12],1.66 nM
same,IC50,IMP-1; [13],13.1 nM
same,Serratia marcescens MITC95,[1]; [14],3.125 µM
same,Klebsiella pneumoniae MITC95,[2]; [15],1.563 µM
same,Escherichia coli MITC95,[3]; [16],1.563 µM
same,IC50,VIM-1; [17],0.587 nM
"NCCNC1CCN(c2ccc(C(F)(F)F)c(S(N)(=O)=O)c2-c2nnn[nH]2)CC1 [Example 829, 3-[4-(2-aminoethylamino)-1-piperidyl]-2-(1H-tetrazol-5-yl)-6-(trifluoromethyl)benzenesulfonamide]",IC50,NDM-1; [4],59.8 nM
same,IC50,IMP-1; [4],93.3 nM
same,Serratia marcescens MITC95,[1]; [19],0.9766 µM
same,Klebsiella pneumoniae MITC95,[2]; [20],0.7813 µM
same,Escherichia coli MITC95,[3]; [21],0.7813 µM
same,IC50,VIM-1; [5],1.08 nM
"NS(=O)(=O)c1c(CC2CNC2)ccc(-c2ccc(C3CCNCC3)cc2)c1-c1nn[nH]n1 [Example 469, 4-(azetidin-3-ylmethyl)-4′-(piperidin-4-yl)-2-(2H-tetrazol-5-yl)-[1,1′-biphenyl]-3-sulfonamide]",IC50,NDM-1; [6],10.7 nM
same,IC50,IMP-1; [7],29.7 nM
same,Serratia marcescens MITC95,[1]; [8],1.563 µM
same,Klebsiella pneumoniae MITC95,[2]; [9],1.563 µM
same,Escherichia coli MITC95,[3]; [10],0.7813 µM
same,IC50,VIM-1; [11],7.65 nM
"NS(=O)(=O)c1c(C(F)(F)F)ccc(N2CC3C(CO)C3C2)c1-c1nnn[nH]1 (stereo not drawn) [Example 658, 3-[6-(hydroxymethyl)-3-azabicyclo[3.1.0]hex-3-yl]-2-(1H-tetrazol-5-yl)-6-(trifluoromethyl)benzenesulfonamide]",IC50,NDM-1; [12],5.12 nM
same,IC50,IMP-1; [13],7 nM
same,Serratia marcescens MITC95,[1]; [14],0.7813 µM
same,Klebsiella pneumoniae MITC95,[2]; [15],12.5 µM
same,Escherichia coli MITC95,[3]; [16],2.344 µM
same,IC50,VIM-1; [18],5.26 nM
"NS(=O)(=O)c1c(C(F)(F)F)ccc(C2CCn3cncc3C2)c1-c1nnn[nH]1 (stereo not drawn) [Example 494, 3-(5,6,7,8-Tetrahydroimidazo[1,5-a]pyridin-7-yl)-2-(1H-tetrazol-5-yl)-6-(trifluoromethyl)benzenesulfonamide]",IC50,NDM-1; [12],4.43 nM
same,IC50,IMP-1; [13],13 nM
same,Serratia marcescens MITC95,[1]; [14],1.172 µM
same,Klebsiella pneumoniae MITC95,[2]; [15],1.563 µM
same,Escherichia coli MITC95,[3]; [16],0.3906 µM
same,IC50,VIM-1; [18],0.427 nM
"NS(=O)(=O)c1c(CC2CCN(CCO)CC2)ccc(-c2ccc(C3CNC3)cc2)c1-c1nn[nH]n1 [Example 607, 3-[4-(azetidin-3-yl)phenyl]-6-[[1-(2-hydroxyethyl)-4-piperidyl]methyl]-2-(2H-tetrazol-5-yl)benzenesulfonamide]",IC50,NDM-1; [12],11.3 nM
same,IC50,IMP-1; [13],42.2 nM
same,Serratia marcescens MITC95,[1]; [14],3.125 µM
same,Klebsiella pneumoniae MITC95,[2]; [15],1.563 µM
same,Escherichia coli MITC95,[3]; [16],1.563 µM
same,IC50,VIM-1; [18],2.07 nM
"NC[C@H]1CC[C@@H](Cc2ccc(-c3ccc(N)nc3)c(-c3nnn[nH]3)c2S(N)(=O)=O)CC1 [Example 580, 6-(((1s,4s)-4-(aminomethyl)cyclohexyl)methyl)-3-(6-aminopyridin-3-yl)-2-(1H-tetrazol-5-yl)benzenesulfonamide]",IC50,NDM-1; [12],0.869 nM
same,IC50,IMP-1; [13],22.7 nM
same,Serratia marcescens MITC95,[1]; [14],6.25 µM
same,Klebsiella pneumoniae MITC95,[2]; [15],12.5 µM
same,Escherichia coli MITC95,[3]; [16],1.563 µM
same,IC50,VIM-1; [17],13.4 nM
NS(=O)(=O)c1c(Cc2ccccc2)ccc(-c2ccc(C3CCNCC3)cc2)c1-c1nnn[nH]1 [Example 261],IC50,NDM-1; [6],6.59 nM
same,IC50,IMP-1; [7],1.72 nM
same,Serratia marcescens MITC95,[1]; [8],1.563 µM
same,Klebsiella pneumoniae MITC95,[2]; [9],100 µM
same,Escherichia coli MITC95,[3]; [10],6.25 µM
same,IC50,VIM-1; [11],10.2 nM
"NS(=O)(=O)c1nccc(NC2CCCCC2)c1-c1nnn[nH]1 [Example 234, 4-(cyclohexylamino)-3-(1H-tetrazol-5-yl)pyridine-2-sulfonamide]",IC50,NDM-1; [4],24.5 nM
same,IC50,IMP-1; [4],1450 nM
same,Serratia marcescens expressing IMP-1 (CL5741) MITC95,[1],100 µM
same,Klebsiella pneumoniae expressing VIM-1 (IHMA 599644) MITC95,[2],>200 µM
same,Escherichia coli expressing NDM-1 (CLB 30016) MITC95,[3],4.688 µM
same,IC50,VIM-1; [5],1170 nM
"NS(=O)(=O)c1nccc(N2CCC(Oc3ncccn3)CC2)c1-c1nnn[nH]1 [Example 231, 4-[4-(pyrimidin-2-yloxy)piperidin-1-yl]-3-(1H-tetrazol-5-yl)pyridine-2-sulfonamide]",IC50,NDM-1; [4],10.8 nM
same,IC50,IMP-1; [4],423 nM
same,Serratia marcescens expressing IMP-1 (CL5741) MITC95,[1],18.75 µM
same,Klebsiella pneumoniae expressing VIM-1 (IHMA 599644) MITC95,[2],>200 µM
same,Escherichia coli expressing NDM-1 (CLB 30016) MITC95,[3],4.688 µM
same,IC50,VIM-1; [5],326 nM
"NCCCCCNc1nc2c(-c3cccc(S(N)(=O)=O)c3-c3nnn[nH]3)cccc2s1 [Example 644, 3-[2-(5-aminopentylamino)-1,3-benzothiazol-4-yl]-2-(1H-tetrazol-5-yl)benzenesulfonamide]",IC50,NDM-1; [12],1.34 nM
same,IC50,IMP-1; [13],32.4 nM
same,Serratia marcescens MITC95,[1]; [14],37.5 µM
same,Klebsiella pneumoniae MITC95,[2]; [15],75 µM
same,Escherichia coli MITC95,[3]; [16],4.688 µM
same,IC50,VIM-1; [17],13.8 nM
"CNC1CC(N2CCC(c3ccc(-c4ccc(C(F)(F)F)c(S(N)(=O)=O)c4-c4nnn[nH]4)cc3)CC2)C1 (stereo not drawn) [Example 799, 4′-{1-[3-(methylamino)cyclobutyl]piperidin-4-yl}-2-(1H-tetrazol-5-yl)-4-(trifluoromethyl)biphenyl-3-sulfonamide]",IC50,NDM-1; [4],3.89 nM
same,IC50,IMP-1; [4],1.05 nM
same,Serratia marcescens MITC95,[1]; [19],3.125 µM
same,Klebsiella pneumoniae MITC95,[2]; [20],>200 µM
same,Escherichia coli MITC95,[3]; [21],3.125 µM
same,IC50,VIM-1; [5],15 nM
"NCCc1cccc(-c2ccc(C(F)(F)F)c(S(N)(=O)=O)c2-c2nnn[nH]2)c1 [Example 734, 3′-(2-aminoethyl)-2-(1H-tetraozl-5-yl)-4-(trifluoromethyl)biphenyl-3-sulfonamide]",IC50,NDM-1; [12],31.4 nM
same,IC50,IMP-1; [13],34.4 nM
same,Serratia marcescens MITC95,[1]; [14],25 µM
same,Klebsiella pneumoniae MITC95,[2]; [15],12.5 µM
same,Escherichia coli MITC95,[3]; [16],12.5 µM
same,IC50,VIM-1; [18],3.27 nM
"NCC[C@H]1CC[C@@H](c2ccc(C(F)(F)F)c(S(N)(=O)=O)c2-c2nnn[nH]2)CC1 [Example 498, 3-(cis 4-(2-aminoethyl)cyclohexyl)-2-(1H-tetrazol-5-yl)-6-(trifluoromethyl)benzenesulfonamide]",IC50,NDM-1; [12],2.15 nM
same,IC50,IMP-1; [13],5.5 nM
same,Serratia marcescens MITC95,[1]; [14],0.1953 µM
same,Klebsiella pneumoniae MITC95,[2]; [15],4.688 µM
same,Escherichia coli MITC95,[3]; [16],0.3906 µM
same,IC50,VIM-1; [17],6.37 nM
"Nc1ccnc2ccc(-c3ccc(C(F)(F)F)c(S(N)(=O)=O)c3-c3nnn[nH]3)cc12 [Example 479, 3-(4-amino-6-quinolyl)-2-(1H-tetrazol-5-yl)-6-(trifluoromethyl)benzenesulfonamide]",IC50,NDM-1; [6],6.66 nM
same,IC50,IMP-1; [7],30.3 nM
same,Serratia marcescens MITC95,[1]; [8],1.563 µM
same,Klebsiella pneumoniae MITC95,[2]; [9],0.7813 µM
same,Escherichia coli MITC95,[3]; [10],0.3906 µM
same,IC50,VIM-1; [11],0.373 nM
